Reference: US12686877B2, “Method for producing olivetolic acid in an amoebozoa host species” (LEIBNIZ-INSTITUT FÜR NATURSTOFF-FORSCHUNG UND …, priority 2020, dated 2026)

System: D. discoideum pChR2 strain
Assay: Growth and metabolic activity monitoring (respiration activity, oxygen transfer rate)
Assay type: cell-based, Dictyostelium discoideum
Conditions: pChR2 strain supplemented with 1 mM hexanoic acid
Method: Growth and metabolic activity monitoring. For determining the respiration activity, the D. discoideum pChR2, pChR5 and pChR7 strains were grown at an initial density of 1×10^6 cells/mL of HL5 medium supplemented with 1% [w/v] glucose and 20 μg/mL G418 in the presence or absence of 20 μg/mL doxycycline and 1 mM hexanoic acid as indicated. The respiration activity was measured by using the Kuhner TOM (transfer-rate online measurement) system equipped with oxygen partial pressure sensors and infrared sensors to calculate the oxygen transfer rate (OTR) and the carbon dioxide transfer rate (CTR). The cultures were grown in 250 mL TOM flasks for 144 h at 140 rpm and 22° C. without interruption to allow a constant OTR assessment. A filling volume of 52 mL was calculated in order to allow a maximum OTR of 8.5 mmol/L/h43, similar to culture conditions of previous experiments using 25 mL per 100 mL Erlenmeyer shake flasks.

Q: How did the effect on growth turn out when CCCCCC(=O)O [hexanoic acid] was run?
A: initial growth inhibitory effect

Q: And the “effect on maximum OTR” value?
A: did not change the maximum OTR

Q: And the “time at which the oxygen transfer rate (OTR) peaked” value (77 h without supplementation)?
A: 92 h
